SMILES strings stand for the structures. Read-outs that look alike come from different tables or passages of the source.

This passage reports IC50 results from patent publication US12312370B2, “Immunoproteasome inhibitors” (Principia Biopharma Inc., priority 2017, dated 2025).

For assay [1], the target named is immunoproteasome LMP7/B5i subunit (Homo sapiens, UniProt P28062). As to the kind of experiment: Caliper-based proteasome enzymatic activity assay, LMP7. The format is biochemical.
In assay [2] the target is constitutive proteasome β5c unit (Homo sapiens, UniProt P28074). Briefly: Caliper-based proteasome enzymatic activity assay, β5c. Format: biochemical. As to conditions: human recombinant constitutive proteasome 0.3 nM, FAM-labeled peptide substrate 1 μM, rt 3 h; read-out: β5c subunit IC50.
Where [3] appears, read: human recombinant immunoproteasome 0.3 nM, FAM-labeled peptide substrate 1 μM, rt 3 h, read-out: LMP7 subunit IC50.

By IC50 is commonly meant the concentration at which inhibition is half-maximal. Consider `CC(C)(C=C(C#N)C(=O)N1CCC[C@@H](CC(=O)N[C@@H](Cc2ccccc2)B(O)O)C1)N1CCC(F)(F)C1` [Example 59, ((R)-1-(2-((S)-1-(2-cyano-4-(3,3-difluoropyrrolidin-1-yl)-4-methylpent-2-enoyl)piperidin-3-yl)acetamido)-2-phenylethyl)boronic acid], for which the 50% inhibitory concentration (IC50) in assay [1] (setting [3]) came to 0.021 µM; in assay [2] it was 0.163 µM.

As for `CC(C)C=C(C#N)C(=O)N1CCC[C@@H]1COC[C@H](NC(=O)c1cc(Cl)ccc1Cl)C(=O)N[C@@H](Cc1ccccc1)[B-]12OC(=O)C[N+]1(C)CC(=O)O2` (stereo partly drawn) [Example 19, 8-((R)-1-((S)-3-(((R)-1-(2-cyano-4-methylpent-2-enoyl)pyrrolidin-2-yl)methoxy)-2-(2,5-dichlorobenzamido)propanamido)-2-phenylethyl)-4-methyl-2,6-dioxohexahydro-[1,3,2]oxazaborolo[2,3-b][1,3,2]oxazaborol-4-ium-8-uide], the IC50 in assay [1] (setting [3]) turned out to be 0.0096 µM; in assay [2], 0.0156 µM.

As to `COC(=O)N1CCN(C(C)(C)C=C(C#N)C(=O)N2CC[C@H](COC(=O)N[C@@H](Cc3ccccc3)B(O)O)C2)CC1` [Example 96, ((R)-1-(((((S)-1-(2-cyano-4-(4-(methoxycarbonyl)piperazin-1-yl)-4-methylpent-2-enoyl)pyrrolidin-3-yl)methoxy)carbonyl)amino)-2-phenylethyl)boronic acid], the IC50 in assay [1] (setting [3]) worked out at 0.0087 µM; in assay [2], 1.62 µM.

As to `CC(C)(C=C(C#N)C(=O)N1CCO[C@H](CC(=O)N[C@@H](Cc2ccccc2)B(O)O)C1)N1CCC(F)(F)C1` [Example 58, ((R)-1-(2-((R)—4-(2-cyano-4-(3,3-difluoropyrrolidin-1-yl)-4-methylpent-2-enoyl)morpholin-2-yl)acetamido)-2-phenylethyl)boronic acid], the values for the IC50 in assay [1] (setting [3]) and in assay [2] were 0.01 µM and 0.139 µM, respectively.

For `C[C@H]1CN(C(C)(C)C=C(C#N)C(=O)N2C3CCC2(COC(=O)N[C@@H](Cc2ccccc2)B(O)O)CC3)CCO1` [Example 122, ((R)-1-((((7-(2-cyano-4-methyl-4-((S)-2-methylmorpholino)pent-2-enoyl)-7-azabicyclo[2.2.1]heptan-1-yl)methoxy)carbonyl)amino)-2-phenylethyl)boronic acid], the figures for the IC50 in assay [1] (setting [3]) and in assay [2] were 0.002 µM and 1.17 µM, respectively.

Consider `CC(C)(C=C(C#N)C(=O)N1CCCC[C@@H](OC(=O)N[C@@H](CC2=CCCC2)B(O)O)C1)N1CCOCC1` [Example 138, ((R)-1-(((((R)-1-(2-cyano-4-methyl-4-morpholinopent-2-enoyl)azepan-3-yl)oxy)carbonyl)amino)-2-(cyclopent-1-en-1-yl)ethyl)boronic acid], for which the values for the concentration for half-maximal inhibition (IC50) in assay [1] (setting [3]) and in assay [2] were 0.0012 µM and above 5 µM, respectively.

Consider `C=CC(=O)N1C[C@@H](F)[C@H](OC(=O)N[C@@H](Cc2ccc(F)cc2)B(O)O)C1` [Example 135, ((R)-1-(((((3R,4R)-1-acryloyl-4-fluoropyrrolidin-3-yl)oxy)carbonyl)amino)-2-(4-fluorophenyl)ethyl)boronic acid], for which the values for the concentration for half-maximal inhibition (IC50) in assay [1] (setting [3]) and in assay [2] were 0.0182 µM and 3.32 µM, respectively.

For the compound `Cc1ccncc1C(=O)N[C@@H](CCCCNC(=O)C(C#N)=CC(C)C)C(=O)N[C@@H](Cc1ccccc1)B(O)O` [Example 17, ((R)-1-((S)-6-(2-cyano-4-methylpent-2-enamido)-2-(4-methylnicotinamido)hexanamido)-2-phenylethyl)boronic acid], the IC50 in assay [1] (setting [3]) turned out to be 0.0064 µM; in assay [2], 0.0109 µM.

Consider `CC(C)(C=C(C#N)C(=O)N1C2CCC1(COC(=O)N[C@@H](Cc1ccccc1)B(O)O)CC2)N1CC2CC(C1)O2` [Example 132, ((1R)-1-((((7-(4-(6-oxa-3-azabicyclo[3.1.1]heptan-3-yl)-2-cyano-4-methylpent-2-enoyl)-7-azabicyclo[2.2.1]heptan-1-yl)methoxy)carbonyl)amino)-2-phenylethyl)boronic acid], for which the half-maximal inhibitory concentration (IC50) in assay [1] (setting [3]) is 0.0008 µM; in assay [2], 1.08 µM.

`CC1(C)CN(C(C)(C)C=C(C#N)C(=O)N2CCCC[C@@H](OC(=O)N[C@@H](Cc3ccccc3)B(O)O)C2)CCO1` [Example 136, ((R)-1-(((((R)-1-(2-cyano-4-(2,2-dimethylmorpholino)-4-methylpent-2-enoyl)azepan-3-yl)oxy)carbonyl)amino)-2-phenylethyl)boronic acid]: the half-maximal inhibitory concentration (IC50) amounted to 0.0013 µM in assay [1] (setting [3]) and 1.28 µM in assay [2].

For `CC(C)(C=C(C#N)C(=O)N1CCC[C@@H](NC(=O)N[C@@H](Cc2ccccc2)B(O)O)C1)N1CCC(F)(F)C1` [Example 101, ((R)-1-(3-((R)-1-(2-cyano-4-(3,3-difluoropyrrolidin-1-yl)-4-methylpent-2-enoyl)piperidin-3-yl)ureido)-2-phenylethyl)boronic acid], the concentration for half-maximal inhibition (IC50) turned out to be 0.145 µM in assay [1] (setting [3]) and 3.92 µM in assay [2].

As to `CN(C[C@H]1CCCCN1C(=O)C(C#N)=CC(C)(C)N1CCC(F)(F)C1)C(=O)N[C@@H](Cc1ccccc1)B(O)O` [Example 64], the 50% inhibitory concentration (IC50) in assay [1] (setting [3]) and in assay [2] was above 5 µM each time.

Regarding `CC(C)(C=C(C#N)C(=O)N1CCC[C@H](OC(=O)N[C@@H](Cc2ccccc2)B(O)O)C1)N1CCC(F)(F)C1` [Example 60, ((R)-1-(((((S)-1-(2-cyano-4-(3,3-difluoropyrrolidin-1-yl)-4-methylpent-2-enoyl)piperidin-3-yl)oxy)carbonyl)amino)-2-phenylethyl)boronic acid], the half-maximal inhibitory concentration (IC50) in assay [1] (setting [3]) turned out to be 0.0014 µM; in assay [2], 0.463 µM.

Turning to `C=C(F)C(=O)N1C2CCC1(COC(=O)N[C@@H](Cc1ccc(F)cc1)B(O)O)CC2` [Example 75, (R)-(1-((((7-(2-fluoroacryloyl)-7-azabicyclo[2.2.1]heptan-1-yl)methoxy)carbonyl)amino)-2-(4-fluorophenyl)ethyl)boronic acid], the half-inhibitory concentration (IC50) is 0.129 µM in assay [1] (setting [3]) and above 5 µM in assay [2].

With `CC(C)(C=C(C#N)C(=O)N1CCC[C@@](C)(OC(=O)N[C@@H](Cc2ccccc2)B(O)O)C1)N1CCC(F)(F)C1` (single isomer, unassigned) [Example 93], the concentration for half-maximal inhibition (IC50) in assay [1] (setting [3]) was 0.646 µM; in assay [2], above 5 µM.

In the case of `C[C@@H]1CN(C(C)(C)C=C(C#N)C(=O)N2C3CCC2(COC(=O)N[C@@H](Cc2ccccc2)B(O)O)CC3)C[C@H](C)O1` [Example 114, ((R)-1-((((7-(2-cyano-4-((2S,6R)-2,6-dimethylmorpholino)-4-methylpent-2-enoyl)-7-azabicyclo[2.2.1]heptan-1-yl)methoxy)carbonyl)amino)-2-phenylethyl)boronic acid], the concentration for half-maximal inhibition (IC50) in assay [1] (setting [3]) amounted to 0.0021 µM; in assay [2], 1.67 µM.

On to `C=CC(=O)N1CCCC(C)(OC(=O)N[C@@H](Cc2ccccc2)B(O)O)C1` (single isomer, unassigned) [Example 85], for which the half-maximal inhibitory concentration (IC50) in assay [1] (setting [3]) and in assay [2] was above 5 µM in each case.

On to `C=CC(=O)N1CCC[C@H](OC(=O)N[C@@H](Cc2ccc(C(F)(F)F)cc2)B(O)O)C1` [Example 66, ((R)-1-(((((S)-1-acryloylpiperidin-3-yl)oxy)carbonyl)amino)-2-(4-(trifluoromethyl)phenyl)ethyl)boronic acid], for which the figures for the IC50 in assay [1] (setting [3]) and in assay [2] were 0.148 µM and above 5 µM, respectively.

Take `CC1(C)CCN(C(C)(C)C=C(C#N)C(=O)N2CCC[C@H](OC(=O)N[C@@H](Cc3ccc(C(F)(F)F)cc3)B(O)O)C2)C1` [Example 69, ((R)-1-(((((S)-1-(2-cyano-4-(3,3-dimethylpyrrolidin-1-yl)-4-methylpent-2-enoyl)piperidin-3-yl)oxy)carbonyl)amino)-2-(4-(trifluoromethyl)phenyl)ethyl)boronic acid]: the IC50 in assay [1] (setting [3]) stood at 0.0261 µM; in assay [2] it was 3.37 µM.

As for `CC(C)C=C(C#N)C(=O)NCCCC[C@H](NC(=O)[C@H](C)NC(=O)C(C)C)C(=O)N[C@@H](Cc1ccccc1)B(O)O` [Example 4, ((R)-1-((S)-6-(2-cyano-4-methylpent-2-enamido)-2-((S)-2-isobutyramidopropanamido)hexanamido)-2-phenylethyl)boronic acid], the IC50 came out at 0.014 µM in assay [1] (setting [3]) and 0.0237 µM in assay [2].

Turning to `CC(C)(C=C(C#N)C(=O)N1C2CCC1(COC(=O)N[C@@H](Cc1ccccc1)B(O)O)CC2)N1CCOCC1` [Example 81], the concentration for half-maximal inhibition (IC50) in assay [1] (setting [3]) amounted to 0.0018 µM; in assay [2], 2.22 µM.

`COC(=O)N1CCN(C(C)(C)C=C(C#N)C(=O)N2CCCC[C@@H](OC(=O)N[C@@H](Cc3ccccc3)B(O)O)C2)CC1` [Example 107, ((R)-1-(((((R)-1-(2-cyano-4-(4-(methoxycarbonyl)piperazin-1-yl)-4-methylpent-2-enoyl)azepan-3-yl)oxy)carbonyl)amino)-2-phenylethyl)boronic acid]: the values for the IC50 in assay [1] (setting [3]) and in assay [2] were 0.001 µM and 1.07 µM, respectively.

For the compound `Cc1ccc(C[C@H](NC(=O)OC[C@H]2CCCN(C(=O)C(C#N)=CC(C)(C)N3CCC(F)(F)C3)C2)B(O)O)cc1` [Example 52, ((R)-1-(((((S)-1-(2-cyano-4-(3,3-difluoropyrrolidin-1-yl)-4-methylpent-2-enoyl)piperidin-3-yl)methoxy)carbonyl)amino)-2-(p-tolyl)ethyl)boronic acid], the values for the concentration for half-maximal inhibition (IC50) in assay [1] (setting [3]) and in assay [2] were 0.0017 µM and 0.715 µM, respectively.

For the compound `CC(C)(C=C(C#N)C(=O)N1CCC[C@H](OC(=O)N[C@@H](CC2=CCCC2)B(O)O)C1)N1CCC(F)(F)C1` [Example 117, ((R)-1-(((((S)-1-(2-cyano-4-(3,3-difluoropyrrolidin-1-yl)-4-methylpent-2-enoyl)piperidin-3-yl)oxy)carbonyl)amino)-2-(cyclopent-1-en-1-yl)ethyl)boronic acid], the half-maximal inhibitory concentration (IC50) in assay [1] (setting [3]) is 0.0043 µM; in assay [2], above 5 µM.

Consider `C=CC(=O)N1CCC[C@H](OC(=O)N[C@@H](Cc2ccc(F)cc2)B(O)O)C1` [Example 70, ((R)-1-(((((S)-1-acryloylpiperidin-3-yl)oxy)carbonyl)amino)-2-(4-fluorophenyl)ethyl)boronic acid], for which the IC50 in assay [1] was 0.106 µM; in assay [2] it was above 5 µM.
